Measurements published in US20160113925A1, “METHODS OF TREATING CANCER WITH A COMBINATION OF GLUCOSE MODULATORS AND BCL-2 INHIBITORS” (EMORY UNIVERSITY, priority 2014, published 2016).
Structures can show the parent of a compound that is named as a salt.

Tests used:
Type in all cases: cell-based
[1] = test system: L363, KMS11, MM.1S and AMO1 cell lines; experiment: Metabolic supplementation of glutamine deprived MM cell lines: reversal of sensitization to ABT-199; settings: glutamine deprived L363, KMS11, MM.1S and AMO1 cell lines supplemented with metabolite
Excerpt: The metabolic specificity of glutamine deprivation-induced sensitization to ABT-199 […]. Glutamine deprived cells were supplemented with various metabolites generated by metabolism of glutamine and evaluated for their ability to reverse sensitization to ABT-199. Glutamine deprived MM cell lines were supplemented with galactose, dimethyl fumarate, dimethyl succinate, oxaloacetic acid, 2 methyl pyruvate, a mixture of non-essential amino acids or cell permeant dimethyl alpha ketoglutarate (DMK).

[2] = test system: MM cell lines; experiment: Sensitization of MM cell lines to ABT-199 (venetoclax) by ritonavir or DON; settings: MM cell lines cultured with ritonavir (40 uM) or DON (0.1 mM); FIGS. 1 and 2
Excerpt: (§1) Ritonavir is an HIV […] that is also a reversible non-competitive inhibitor of glucose transport through GLUT4. […] Glutamine antagonist DON (6-Diazo-5-oxo-L-norleucine) effectively block first step of glutaminolysis pathway and thus restrict cells for using glutamine.

[3] = test system: MM patient samples; experiment: Sensitization of MM patient samples to ABT-199 (venetoclax) by ritonavir or DON; settings: for efficacy of the combination with ABT-199 (venetoclax) in patient samples: highly responsive samples were from relapse refractory patients
Excerpt: as §1

[4] = test system: MM lines; experiment: Impact of glucose or glutamine withdrawal on sensitivity of MM lines to ABT-199 (venetoclax)
Experimental: Eight MM cell lines were assessed for induction of apoptosis upon culture in media deprived of glucose, glutamine or both nutrients. While all cells are growth inhibited the extent of apoptosis elicited was highly variable. […] Continued survival upon nutrient deprivation despite induction of BIM could be due to increased sequestration of BIM with the induced BCL-2. […] The BH3 mimetic ABT-199 (venetoclax) targets the BIM-BCL-2 interaction. The impact of either glucose or glutamine withdrawal on sensitivity to ABT-199 (venetoclax) was evaluated.

## COC(=O)C(C)=O [2 methyl pyruvate]
[1]
  reversal of glutamine deprivation-induced sensitization to ABT-199: only the addition of DMK reversed sensitization

## COC(=O)CCC(=O)C(=O)OC [DMK, dimethyl alpha ketoglutarate]
[1]
  reversal of glutamine deprivation-induced sensitization to ABT-199: reversed sensitization

## [N-]=[N+]=CC(=O)CC[C@H](N)C(=O)O [DON, 6-Diazo-5-oxo-L-norleucine]
[2]
  sensitivity to ABT-199 (venetoclax) in MM cell lines: increased sensitivity
[3]
  sensitivity to ABT-199 (venetoclax) in patient samples: increased sensitivity
  efficacy of the combination with ABT-199 (venetoclax) in patient samples: highly efficacious

## CC(C)c1nc(CN(C)C(=O)N[C@H](C(=O)N[C@@H](Cc2ccccc2)C[C@H](O)[C@H](Cc2ccccc2)NC(=O)OCc2cncs2)C(C)C)cs1 [Ritonavir, 1,3-thiazol-5-ylmethyl N-[(2S,3S,5S)-3-hydroxy-5-[[(2S)-3-methyl-2-[[methyl-[(2-propan-2-yl-1,3-thiazol-4-yl)methyl]carbamoyl]amino]butanoyl]amino]-1,6-diphenylhexan-2-yl]carbamate]
[2]
  sensitivity to ABT-199 (venetoclax) in MM cell lines: significantly increased sensitivity
[3]
  sensitivity to ABT-199 (venetoclax) in patient samples: significantly increased sensitivity
  efficacy of the combination with ABT-199 (venetoclax) in patient samples: highly efficacious

## COC(=O)/C=C/C(=O)OC [dimethyl fumarate]
[1]
  reversal of glutamine deprivation-induced sensitization to ABT-199: only the addition of DMK reversed sensitization

## COC(=O)CCC(=O)OC [dimethyl succinate]
[1]
  reversal of glutamine deprivation-induced sensitization to ABT-199: only the addition of DMK reversed sensitization

## O=C[C@H](O)[C@@H](O)[C@@H](O)[C@H](O)CO [galactose]
[1]
  reversal of glutamine deprivation-induced sensitization to ABT-199: only the addition of DMK reversed sensitization

## O=C(O)CC(=O)C(=O)O [oxaloacetic acid]
[1]
  reversal of glutamine deprivation-induced sensitization to ABT-199: only the addition of DMK reversed sensitization

## venetoclax [ABT-199 (venetoclax)]
[4]
  sensitization of MM lines to ABT-199 (venetoclax) on nutrient withdrawal: sensitize all MM lines
